According to patent US20230148214A1, “INDAZOLES AND AZAINDAZOLES AS LRRK2 INHIBITORS” (ESCAPE Bio, Inc., priority 2020, published 2023):

Legend:
[1] = molecular target: T1, LRRK2 G2019S (Homo sapiens, UniProt Q5S007, G2019S); test: LRRK2 Kinase Activity Assay (LanthaScreen TR-FRET), G2019S; type: biochemical; details: recombinant G2019S-LRRK2, 25 μM ATP, 400 nM LRRKtide, 60 min; class symbols
T1 construct: purchased Life Technologies PV4881
How it was run: (§1)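 Recombinant wild-type or G2019S LRRK2 incubated with fluorescein-labeled LRRKtide (ERM-based) peptide, ATP and serially diluted compound for 60 min at room temperature.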

[2] = molecular target: T2, LRRK2 WT (Homo sapiens, UniProt Q5S007); test: LRRK2 Kinase Activity Assay (LanthaScreen TR-FRET), wild type; type: biochemical; details: recombinant wild type LRRK2, 25 μM ATP, 400 nM LRRKtide, 60 min
T2 construct: purchased Life Technologies PR8604B
How it was run: as §1

T1 sequence (Q5S007 whole entry G2019S): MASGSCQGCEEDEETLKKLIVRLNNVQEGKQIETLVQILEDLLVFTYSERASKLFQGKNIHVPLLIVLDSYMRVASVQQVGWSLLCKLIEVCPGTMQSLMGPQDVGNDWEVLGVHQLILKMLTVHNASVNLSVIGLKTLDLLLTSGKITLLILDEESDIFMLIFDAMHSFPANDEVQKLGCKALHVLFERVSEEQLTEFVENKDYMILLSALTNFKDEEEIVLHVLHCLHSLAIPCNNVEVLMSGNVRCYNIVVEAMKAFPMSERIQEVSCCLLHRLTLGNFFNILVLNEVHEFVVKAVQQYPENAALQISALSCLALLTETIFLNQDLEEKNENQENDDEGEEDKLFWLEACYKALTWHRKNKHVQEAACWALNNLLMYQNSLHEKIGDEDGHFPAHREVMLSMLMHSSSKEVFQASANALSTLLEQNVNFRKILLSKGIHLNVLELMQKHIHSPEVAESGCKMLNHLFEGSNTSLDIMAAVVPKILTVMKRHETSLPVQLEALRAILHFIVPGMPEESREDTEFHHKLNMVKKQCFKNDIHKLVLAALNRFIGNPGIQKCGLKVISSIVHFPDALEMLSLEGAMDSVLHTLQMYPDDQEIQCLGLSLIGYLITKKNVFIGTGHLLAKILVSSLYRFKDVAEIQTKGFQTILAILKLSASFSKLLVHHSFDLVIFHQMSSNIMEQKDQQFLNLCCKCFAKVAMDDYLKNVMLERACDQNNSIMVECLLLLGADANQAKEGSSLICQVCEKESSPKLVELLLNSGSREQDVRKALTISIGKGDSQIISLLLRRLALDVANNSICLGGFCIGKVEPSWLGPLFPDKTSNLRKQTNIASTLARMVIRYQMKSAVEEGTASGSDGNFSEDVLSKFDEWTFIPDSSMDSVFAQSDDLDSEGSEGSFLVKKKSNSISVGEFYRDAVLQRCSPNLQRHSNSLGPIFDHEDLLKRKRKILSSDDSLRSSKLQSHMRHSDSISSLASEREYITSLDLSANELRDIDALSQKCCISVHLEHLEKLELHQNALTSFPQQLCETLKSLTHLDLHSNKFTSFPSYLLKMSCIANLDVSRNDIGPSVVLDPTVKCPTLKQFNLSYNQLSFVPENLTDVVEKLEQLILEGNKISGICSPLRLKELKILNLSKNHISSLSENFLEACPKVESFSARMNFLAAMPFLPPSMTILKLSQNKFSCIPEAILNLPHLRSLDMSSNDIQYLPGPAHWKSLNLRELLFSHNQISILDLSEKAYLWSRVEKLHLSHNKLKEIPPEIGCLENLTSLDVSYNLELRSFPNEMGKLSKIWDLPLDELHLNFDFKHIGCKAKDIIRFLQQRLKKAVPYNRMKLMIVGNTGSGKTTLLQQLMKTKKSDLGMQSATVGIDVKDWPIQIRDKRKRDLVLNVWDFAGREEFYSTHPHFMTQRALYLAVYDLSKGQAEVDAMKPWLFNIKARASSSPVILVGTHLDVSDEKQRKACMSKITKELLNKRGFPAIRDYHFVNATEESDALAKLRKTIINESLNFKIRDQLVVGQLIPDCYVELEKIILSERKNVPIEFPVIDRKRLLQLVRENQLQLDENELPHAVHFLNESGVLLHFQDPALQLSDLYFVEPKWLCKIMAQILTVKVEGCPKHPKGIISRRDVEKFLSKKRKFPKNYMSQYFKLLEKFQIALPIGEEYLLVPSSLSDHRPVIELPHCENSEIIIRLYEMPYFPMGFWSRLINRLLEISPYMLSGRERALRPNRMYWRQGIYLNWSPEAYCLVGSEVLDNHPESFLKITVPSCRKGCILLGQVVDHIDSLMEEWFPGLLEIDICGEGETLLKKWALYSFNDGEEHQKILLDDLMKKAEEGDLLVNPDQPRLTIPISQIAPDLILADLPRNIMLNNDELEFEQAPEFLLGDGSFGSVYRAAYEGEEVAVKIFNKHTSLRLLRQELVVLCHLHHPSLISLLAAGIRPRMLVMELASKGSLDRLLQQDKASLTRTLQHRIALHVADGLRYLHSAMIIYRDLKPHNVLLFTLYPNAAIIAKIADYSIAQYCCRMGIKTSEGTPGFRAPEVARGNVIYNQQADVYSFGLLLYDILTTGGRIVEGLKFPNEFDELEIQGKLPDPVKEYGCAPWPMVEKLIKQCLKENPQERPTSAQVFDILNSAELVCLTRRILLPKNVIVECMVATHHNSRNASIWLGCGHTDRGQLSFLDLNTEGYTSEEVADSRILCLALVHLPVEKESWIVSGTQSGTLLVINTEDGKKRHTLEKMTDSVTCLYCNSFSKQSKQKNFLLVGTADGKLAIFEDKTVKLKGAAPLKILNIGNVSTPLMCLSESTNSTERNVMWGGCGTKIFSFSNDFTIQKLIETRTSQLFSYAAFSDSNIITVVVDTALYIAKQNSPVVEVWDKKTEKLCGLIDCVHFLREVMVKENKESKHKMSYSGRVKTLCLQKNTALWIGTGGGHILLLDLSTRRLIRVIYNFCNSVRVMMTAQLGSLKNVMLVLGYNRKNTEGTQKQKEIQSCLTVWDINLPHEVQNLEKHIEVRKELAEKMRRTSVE
T2 sequence (Q5S007 whole entry): as the sequence (Q5S007 whole entry G2019S) above, with S2019G counted along it

IC50 [1] [µM]	IC50 ([2]; numeric bound) [µM]	IC50 ([2]; class symbols) [µM]	SMILES
0.1 to 1	> 10		CC(C)(C)OC(=O)n1cccc1-c1n[nH]c2ccc(N[C@H]3CCCc4cc(C#N)ccc43)cc12 (single isomer, unassigned) [Example 80, tert-Butyl 2-(5-((6-cyano-1,2,3,4-tetrahydronaphthalen-1-yl)amino)-1H-indazol-3-yl)-1H-pyrrole-1-carboxylate]
< 0.1		< 0.1	N#Cc1ccc2c(c1)CCC[C@@H]2Nc1ccc2[nH]nc(-c3ccc(C(=O)N4CCOCC4)cc3)c2c1 (single isomer, unassigned) [Example 81, 5-((3-(4-(Morpholine-4-carbonyl)phenyl)-1H-indazol-5-yl)amino)-5,6,7,8-tetrahydronaphthalene-2-carbonitrile]
< 0.1		< 0.1	N#Cc1ccc2c(c1)CCC[C@@H]2Nc1ccc2[nH]nc(-c3ccc4c(c3)NC(=O)C4)c2c1 (single isomer, unassigned) [Example 82, 5-((3-(2-Oxoindolin-6-yl)-1H-indazol-5-yl)amino)-5,6,7,8-tetrahydronaphthalene-2-carbonitrile]
< 0.1		< 0.1	Cn1cc2cc(-c3n[nH]c4ccc(N[C@H]5CCCc6cc(C#N)ccc65)cc34)ccc2n1 (single isomer, unassigned) [Example 83, 5-((2′-Methyl-1H,2′H-[3,5′-biindazol]-5-yl)amino)-5,6,7,8-tetrahydronaphthalene-2-carbonitrile]
< 0.1		0.1 to 1	N#Cc1ccc2c(c1)CCC[C@@H]2Nc1ccc2[nH]nc(-c3ccc4c(c3)OCCO4)c2c1 (single isomer, unassigned) [Example 84, 5-((3-(2,3-Dihydrobenzo[b][1,4]dioxin-6-yl)-1H-indazol-5-yl)amino)-5,6,7,8-tetrahydronaphthalene-2-carbonitrile]
< 0.1		< 0.1	CC(=O)Nc1cccc(-c2n[nH]c3ccc(N[C@H]4CCCc5cc(C#N)ccc54)cc23)c1 (single isomer, unassigned) [Example 85, N-(3-(5-((6-Cyano-1,2,3,4-tetrahydronaphthalen-1-yl)amino)-1H-indazol-3-yl)phenyl)acetamide]
< 0.1		< 0.1	CN(C)C(=O)c1cccc(-c2n[nH]c3ccc(N[C@H]4CCCc5cc(C#N)ccc54)cc23)c1 (single isomer, unassigned) [Example 86, 3-(5-((6-Cyano-1,2,3,4-tetrahydronaphthalen-1-yl)amino)-1H-indazol-3-yl)-N,N-dimethylbenzamide]
0.1 to 1		1 to 10	N#Cc1ccc2c(c1)CCC[C@@H]2Nc1ccc2[nH]nc(C3=CCC4(CC3)OCCO4)c2c1 (single isomer, unassigned) [Example 87, 5-((3-(1,4-Dioxaspiro[4.5]dec-7-en-8-yl)-1H-indazol-5-yl)amino)-5,6,7,8-tetrahydronaphthalene-2-carbonitrile]
< 0.1		0.1 to 1	N#Cc1ccc2c(c1)CCC[C@@H]2Nc1ccc2[nH]nc(C3=CCOCC3)c2c1 (single isomer, unassigned) [Example 88, 5-((3-(3,6-Dihydro-2H-pyran-4-yl)-1H-indazol-5-yl)amino)-5,6,7,8-tetrahydronaphthalene-2-carbonitrile]
< 0.1		< 0.1	N#Cc1cccc(-c2n[nH]c3ccc(N[C@H]4CCCc5cc(C#N)ccc54)cc23)c1 (single isomer, unassigned) [Example 89, 5-((3-(3-Cyanophenyl)-1H-indazol-5-yl)amino)-5,6,7,8-tetrahydronaphthalene-2-carbonitrile]
< 0.1		0.1 to 1	N#Cc1ccc2c(c1)CCC[C@@H]2Nc1ccc2[nH]nc(-c3ccc(C#N)nc3)c2c1 (single isomer, unassigned) [Example 91, 5-(5-((6-Cyano-1,2,3,4-tetrahydronaphthalen-1-yl)amino)-1H-indazol-3-yl)picolinonitrile]
